The results in this text go back to the OligoGym collection.

Only the 19 paired bases of each siRNA are shown; overhangs and chemistry are not given here.
Note: test concentration or dose not given here.

In one series the target is LMNA. The experiment in a line: five studies, different assays. The conditions noted are these: siRNA.
Turning to “sense CCCGCUCCUACCUCCUGGG / antisense CCCAGGAGGUAGGAGCGGG”, the target inhibition was 71%.

With “sense GGACCUGCAGGAGCUCAAU / antisense AUUGAGCUCCUGCAGGUCC”, the target inhibition was 45%.

For the substance “sense GCUGGCCCUGGACAUGGAG / antisense CUCCAUGUCCAGGGCCAGC”, the target inhibition turned out to be 79%.

Regarding “sense GUGGCCAUGCGCAAGCUGG / antisense CCAGCUUGCGCAUGGCCAC”, the target inhibition was 74%.

Consider “sense GAAGGAGCUGGAGAAGACU / antisense AGUCUUCUCCAGCUCCUUC”, for which the target inhibition is 93%.

In turn, “sense CUGGAGAAGACUUAUUCUG / antisense CAGAAUAAGUCUUCUCCAG” registered a target inhibition of 98%.

As for “sense GGCACAGAACACCUGGGGC / antisense GCCCCAGGUGUUCUGUGCC”, the target inhibition was 86%.

“sense GGAGAAGACUUAUUCUGCC / antisense GGCAGAAUAAGUCUUCUCC” came in with a target inhibition of 95%.

Substance “sense UGCAGCAGCAGCUGGACGA / antisense UCGUCCAGCUGCUGCUGCA” displayed a target inhibition of 92%.

“sense UAACCCUUUGGUUUUUUUC / antisense GAAAAAAACCAAAGGGUUA” yielded a target inhibition of 52%.

Turning to “sense AGCUGGAGAAGACUUAUUC / antisense GAAUAAGUCUUCUCCAGCU”, the target inhibition came out at 96%.

“sense GCUUCGAGACCUGGAGGAC / antisense GUCCUCCAGGUCUCGAAGC” had a target inhibition of 96%.

In the case of “sense AAGAAGGAGCUGGAGAAGA / antisense UCUUCUCCAGCUCCUUCUU”, the target inhibition was 87%.

The target in the next series is PPIB. The experiment in a line: five studies, different assays. The conditions noted are these: siRNA.
On to “sense CAAAAACAGUGGAUAAUUU / antisense AAAUUAUCCACUGUUUUUG”, for which the target inhibition came out at 90.2%.

Consider “sense GGGAGAUGGCACAGGAGGA / antisense UCCUCCUGUGCCAUCUCCC”, for which the target inhibition was determined as 80.4%.

“sense AGGACUUCAUGAUCCAGGG / antisense CCCUGGAUCAUGAAGUCCU” displayed a target inhibition of 82.9%.

For the substance “sense CCCCGAUGAGAACUUCAAA / antisense UUUGAAGUUCUCAUCGGGG”, the target inhibition is 84.7%.

“sense AGCAUCUACGGUGAGCGCU / antisense AGCGCUCACCGUAGAUGCU” had a target inhibition of 64.1%.

On to “sense CCAUCGUGUAAUCAAGGAC / antisense GUCCUUGAUUACACGAUGG”, for which the target inhibition worked out at 87.4%.

For “sense CGGUGAGCGCUUCCCCGAU / antisense AUCGGGGAAGCGCUCACCG”, the target inhibition was 80.2%.

As to “sense GAUGGCACAGGAGGAAAGA / antisense UCUUUCCUCCUGUGCCAUC”, the target inhibition was determined as 84.9%.

As to “sense AGGAGGAAAGAGCAUCUAC / antisense GUAGAUGCUCUUUCCUCCU”, the target inhibition was 58.9%.

“sense UUCACCAGGGGAGAUGGCA / antisense UGCCAUCUCCCCUGGUGAA” returned a target inhibition of 17.6%.

“sense AAAAACAGCAAAUUCCAUC / antisense GAUGGAAUUUGCUGUUUUU” registered a target inhibition of 7.6%.

The substance “sense AGAGCAUCUACGGUGAGCG / antisense CGCUCACCGUAGAUGCUCU” returned a target inhibition of 71.7%.

For the substance “sense AUCGUGUAAUCAAGGACUU / antisense AAGUCCUUGAUUACACGAU”, the target inhibition amounted to 86.7%.

Consider “sense AAAACAGUGGAUAAUUUUG / antisense CAAAAUUAUCCACUGUUUU”, for which the target inhibition amounted to 49.5%.

Take “sense CAUCUACGGUGAGCGCUUC / antisense GAAGCGCUCACCGUAGAUG”: the target inhibition turned out to be 89%.

“sense GAGAAAGGAUUUGGCUACA / antisense UGUAGCCAAAUCCUUUCUC” showed a target inhibition of 92.3%.

The substance “sense GGCUACAAAAACAGCAAAU / antisense AUUUGCUGUUUUUGUAGCC” came in with a target inhibition of 77.4%.

The substance “sense GAGGAAAGAGCAUCUACGG / antisense CCGUAGAUGCUCUUUCCUC” came in with a target inhibition of 58.4%.

For the substance “sense UGAGAACUUCAAACUGAAG / antisense CUUCAGUUUGAAGUUCUCA”, the target inhibition amounted to 41.7%.

Substance “sense AACAGUGGAUAAUUUUGUG / antisense CACAAAAUUAUCCACUGUU” displayed a target inhibition of 16.3%.

“sense GUUCCAAAAACAGUGGAUA / antisense UAUCCACUGUUUUUGGAAC” registered a target inhibition of 88.1%.

“sense UUAGCUACAGGAGAGAAAG / antisense CUUUCUCUCCUGUAGCUAA” had a target inhibition of 30.7%.

“sense UGUAAUCAAGGACUUCAUG / antisense CAUGAAGUCCUUGAUUACA” showed a target inhibition of 63.9%.

“sense ACAAAAACAGCAAAUUCCA / antisense UGGAAUUUGCUGUUUUUGU” returned a target inhibition of 78.5%.

Substance “sense GAGAUGGCACAGGAGGAAA / antisense UUUCCUCCUGUGCCAUCUC” returned a target inhibition of 70.5%.

With “sense CGUGUAAUCAAGGACUUCA / antisense UGAAGUCCUUGAUUACACG”, the target inhibition was determined as 88.8%.

As for “sense GGAGACUUCACCAGGGGAG / antisense CUCCCCUGGUGAAGUCUCC”, the target inhibition turned out to be 80.9%.

Substance “sense CACCAGGGGAGAUGGCACA / antisense UGUGCCAUCUCCCCUGGUG” returned a target inhibition of 73.8%.

“sense UUGUGGCCUUAGCUACAGG / antisense CCUGUAGCUAAGGCCACAA” yielded a target inhibition of 16%.

Substance “sense UGGCACAGGAGGAAAGAGC / antisense GCUCUUUCCUCCUGUGCCA” displayed a target inhibition of 55.9%.

As to “sense AGGGGAGAUGGCACAGGAG / antisense CUCCUGUGCCAUCUCCCCU”, the target inhibition is 76.1%.

With “sense CAGGGCGGAGACUUCACCA / antisense UGGUGAAGUCUCCGCCCUG”, the target inhibition came out at 46.8%.

As for “sense CUACAGGAGAGAAAGGAUU / antisense AAUCCUUUCUCUCCUGUAG”, the target inhibition was 93.9%.

“sense GCUUCCCCGAUGAGAACUU / antisense AAGUUCUCAUCGGGGAAGC” returned a target inhibition of 67.8%.

“sense GAGAGAAAGGAUUUGGCUA / antisense UAGCCAAAUCCUUUCUCUC” gave a target inhibition of 93.4%.

“sense GACUUCAUGAUCCAGGGCG / antisense CGCCCUGGAUCAUGAAGUC” displayed a target inhibition of 51.2%.

The substance “sense UUUUGUGGCCUUAGCUACA / antisense UGUAGCUAAGGCCACAAAA” registered a target inhibition of 52%.

On to “sense UCCAAAAACAGUGGAUAAU / antisense AUUAUCCACUGUUUUUGGA”, for which the target inhibition came to 75.3%.

As to “sense GUGAGCGCUUCCCCGAUGA / antisense UCAUCGGGGAAGCGCUCAC”, the target inhibition was 83.9%.

For “sense AUCAAGGACUUCAUGAUCC / antisense GGAUCAUGAAGUCCUUGAU”, the target inhibition is 66.4%.

“sense UUGGCUACAAAAACAGCAA / antisense UUGCUGUUUUUGUAGCCAA” returned a target inhibition of 68%.

Consider “sense GUGGCCUUAGCUACAGGAG / antisense CUCCUGUAGCUAAGGCCAC”, for which the target inhibition amounted to 60.3%.

Substance “sense UUCCAUCGUGUAAUCAAGG / antisense CCUUGAUUACACGAUGGAA” yielded a target inhibition of 45.9%.

As for “sense CAAAUUCCAUCGUGUAAUC / antisense GAUUACACGAUGGAAUUUG”, the target inhibition was 92.3%.

The substance “sense UCCAGGGCGGAGACUUCAC / antisense GUGAAGUCUCCGCCCUGGA” displayed a target inhibition of 41.8%.

In the case of “sense CAGUGGAUAAUUUUGUGGC / antisense GCCACAAAAUUAUCCACUG”, the target inhibition was determined as 39.7%.

“sense UCAAACUGAAGCACUACGG / antisense CCGUAGUGCUUCAGUUUGA”: the target inhibition worked out at 18.1%.

Substance “sense CUUCAUGAUCCAGGGCGGA / antisense UCCGCCCUGGAUCAUGAAG” showed a target inhibition of 88.7%.

“sense AAGGAUUUGGCUACAAAAA / antisense UUUUUGUAGCCAAAUCCUU” yielded a target inhibition of 81.9%.

In the case of “sense UCAUGAUCCAGGGCGGAGA / antisense UCUCCGCCCUGGAUCAUGA”, the target inhibition stood at 92.8%.

Substance “sense AAUUCCAUCGUGUAAUCAA / antisense UUGAUUACACGAUGGAAUU” registered a target inhibition of 87.4%.

The substance “sense GUGGAUAAUUUUGUGGCCU / antisense AGGCCACAAAAUUAUCCAC” registered a target inhibition of 55%.

Consider “sense AUGAUCCAGGGCGGAGACU / antisense AGUCUCCGCCCUGGAUCAU”, for which the target inhibition was 48.5%.

Substance “sense GGCCUUAGCUACAGGAGAG / antisense CUCUCCUGUAGCUAAGGCC” had a target inhibition of 94.6%.

As to “sense GGAAAGAGCAUCUACGGUG / antisense CACCGUAGAUGCUCUUUCC”, the target inhibition amounted to 93.3%.

“sense ACUUCACCAGGGGAGAUGG / antisense CCAUCUCCCCUGGUGAAGU” gave a target inhibition of 41.9%.

“sense AUAAUUUUGUGGCCUUAGC / antisense GCUAAGGCCACAAAAUUAU” yielded a target inhibition of 32.8%.

Substance “sense AAAGAGCAUCUACGGUGAG / antisense CUCACCGUAGAUGCUCUUU” came in with a target inhibition of 50.7%.

Turning to “sense AGCUACAGGAGAGAAAGGA / antisense UCCUUUCUCUCCUGUAGCU”, the target inhibition amounted to 75.8%.

As for “sense ACAGCAAAUUCCAUCGUGU / antisense ACACGAUGGAAUUUGCUGU”, the target inhibition worked out at 91.9%.

In turn, “sense UCUACGGUGAGCGCUUCCC / antisense GGGAAGCGCUCACCGUAGA” displayed a target inhibition of 2.8%.

As for “sense ACAGGAGAGAAAGGAUUUG / antisense CAAAUCCUUUCUCUCCUGU”, the target inhibition is 84.9%.

Substance “sense GAAAGGAUUUGGCUACAAA / antisense UUUGUAGCCAAAUCCUUUC” displayed a target inhibition of 94.2%.

For “sense UAAUCAAGGACUUCAUGAU / antisense AUCAUGAAGUCCUUGAUUA”, the target inhibition is 87.9%.

“sense AGAACUUCAAACUGAAGCA / antisense UGCUUCAGUUUGAAGUUCU”: the target inhibition was 45.4%.

In the case of “sense GCGCUUCCCCGAUGAGAAC / antisense GUUCUCAUCGGGGAAGCGC”, the target inhibition was determined as 92.7%.

As to “sense CUACAAAAACAGCAAAUUC / antisense GAAUUUGCUGUUUUUGUAG”, the target inhibition is 71.2%.
